These results are taken from article PMC5996281, “Salinity Tolerance of Two Potato Cultivars (Solanum tuberosum) Correlates With Differences in Vacuolar Transport Activity” (Frontiers in Plant Science, 2018).

Assay [1] relates to T1, V-H^+-ATPase (cv. Desiree).
T1 construct: gene VHA-A; subunit A 69 kDa on blot; with V-type proton ATPase 16 kDa proteolipid subunit; V-type proton ATPase subunit a
Put plainly: ACMA fluorescence quench, initial rate of H+ pumping in tonoplast vesicles. It counts as biochemical, Solanum tuberosum. The settings on record: 10 mM Mops-TRIS pH 7.0, 5 mM MgCl2, 100 mM KCl; vesicles from control plants (0 mM NaCl).

For assay [2], the system named is T2, V-H^+-ATPase (cv. Mozart).
T2 construct: gene VHA-A; subunit A 69 kDa on blot; with V-type proton ATPase 16 kDa proteolipid subunit; V-type proton ATPase subunit a
The description is as above. It is filed as biochemical, Solanum tuberosum. Conditions: 10 mM Mops-TRIS pH 7.0, 5 mM MgCl2, 100 mM KCl; vesicles from control plants (0 mM NaCl).

Another assay deals with T3, V-H^+-PPase (cv. Mozart).
T3 construct: gene StVP1
The settings on record: 10 mM Mops-TRIS pH 7.0, 5 mM MgCl2, 100 mM KCl; vesicles from control plants (0 mM NaCl).

In assay [3] the test system is T4, V-H^+-PPase (cv. Desiree).
T4 construct: gene StVP1
The settings on record: 10 mM Mops-TRIS pH 7.0, 5 mM MgCl2, 100 mM KCl; vesicles from control plants (0 mM NaCl).

Another assay deals with T5, V-H^+-ATPase.
T5 construct: gene VHA-c; native V1Vo complex in tonoplast-enriched leaf vesicles; with V-type proton ATPase catalytic subunit A; V-type proton ATPase subunit B
Put plainly: ACMA fluorescence quench, ATP-driven H+ pumping in tonoplast vesicles. It is filed as biochemical, Solanum tuberosum. The settings on record: 1 mM Mg ATP, 10 mM Mops-TRIS pH 7.0, 5 mM MgCl2, 100 mM KCl; inhibition; cultivar not told.

The structures appear in SMILES notation.

Turning to `Nc1ncnc2c1ncn2[C@@H]1O[C@H](COP(=O)(O)OP(=O)(O)OP(=O)(O)O)[C@@H](O)[C@H]1O` [ATP], the Michaelis-Menten constant (Km) was 81 µM in assay [1] and 28 µM in assay [2]. Turning to `O=P(O)(O)OP(=O)(O)O` [PPi], the figures for the Km (in the assay on V-H^+-PPase (cv. Mozart); in assay [3]) were 9.6 ± 0.8 µM and 7.3 ± 1.1 µM, respectively. `CO/C1=C\C(C)=C\[C@@H](C)[C@@H](O)[C@@H](C)C/C(C)=C/C=C/[C@H](OC)[C@@H]([C@@H](C)[C@@H](O)[C@H](C)[C@@]2(O)C[C@@H](O)[C@H](C)[C@@H](C(C)C)O2)OC1=O` [bafilomycin] returned an EC50 at V-H^+-ATPase of 0.2 nM.
